From the supplement of paper PMC9663587

How the values were obtained:
Neratinib/HKI272 = compound: CCOc1cc2ncc(C#N)c(Nc3ccc(OCc4ccccn4)c(Cl)c3)c2cc1NC(=O)/C=C/CN(C)C [Neratinib/HKI272]; experiment: increase in dead-cell fraction, 72 h; higher = more death;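 further: breast cancer cell lines in 384-well plates, stained with Hoechst plus LIVE/DEAD far red dye and imaged, cells above an LDR intensity threshold counted dead, Hoechst-negative corpses included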
[1] = compound: CCc1cnn2c(NCc3ccc[n+]([O-])c3)cc(N3CCCC[C@H]3CCO)nc12; experiment: as above
[2] = compound: CCN1CCN(Cc2ccc(Nc3ncc(F)c(-c4cc(F)c5nc(C)n(C(C)C)c5c4)n3)nc2)CC1; experiment: as above
Flavopiridol [3] = compound: T1, CN1CC[C@H](c2c(O)cc(O)c3c(=O)cc(-c4ccccc4Cl)oc23)[C@H](O)C1 [Flavopiridol]; experiment: as above
LEE011/Ribociclib = compound: CN(C)C(=O)c1cc2cnc(Nc3ccc(N4CCNCC4)cn3)nc2n1C1CCCC1 [LEE011/Ribociclib]; experiment: as above
BSJ-03-123 = compound: CC(=O)c1c(C)c2cnc(Nc3ccc(N4CCN(CCOCCOCCOCCNC(=O)COc5cccc6c5C(=O)N(C5CCC(=O)NC5=O)C6=O)CC4)cn3)nc2n(C2CCCC2)c1=O [BSJ-03-123]; experiment: as above
[4] = compound: CC(=O)c1c(C)c2cnc(Nc3ccc(N4CCNCC4)cn3)nc2n(C2CCCC2)c1=O; experiment: as above
THZ1 [5] = compound: T2, CN(C)C/C=C/C(=O)Nc1ccc(C(=O)Nc2cccc(Nc3ncc(Cl)c(-c4c[nH]c5ccccc45)n3)c2)cc1 [THZ1]; experiment: as above
THZ531 = compound: CN(C)C/C=C/C(=O)Nc1ccc(C(=O)N2CCC[C@@H](Nc3ncc(Cl)c(-c4c[nH]c5ccccc45)n3)C2)cc1 [THZ531]; experiment: GR value, 72 h; higher = faster growth (1 = untreated, <0 = killing);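 further: breast cancer and non-malignant breast epithelial lines, nine half-log doses, viable cells counted by Hoechst and LIVE/DEAD dye imaging versus time-zero plates and DMSO controls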
Flavopiridol [6] = compound: T1, Flavopiridol; experiment: as above
[7] = compound: CC(=O)c1c(C)c2cnc(Nc3ccc(N4CCNCC4)cn3)nc2n(C2CCCC2)c1=O; experiment: as above
THZ1 [8] = compound: T2, THZ1; experiment: as above

BT549
increase in dead-cell fraction (Neratinib/HKI272; 0.0003162 µM): 0.0052
increase in dead-cell fraction (Neratinib/HKI272; 0.001 µM): 0.0037
increase in dead-cell fraction (Neratinib/HKI272; 0.003162 µM): 0.0077
increase in dead-cell fraction (Neratinib/HKI272; 0.01 µM): -0.001
increase in dead-cell fraction (Neratinib/HKI272; 0.03162 µM): 0.0074
increase in dead-cell fraction (Neratinib/HKI272; 0.1 µM): -0.0081
increase in dead-cell fraction (Neratinib/HKI272; 0.3162 µM): 0.0066
increase in dead-cell fraction (Neratinib/HKI272; 1 µM): 0.0035
increase in dead-cell fraction (Neratinib/HKI272; 3.162 µM): 0.102
increase in dead-cell fraction ([1]; 0.0001 µM): -0.0017
increase in dead-cell fraction ([1]; 0.0003162 µM): -0.0119
increase in dead-cell fraction ([1]; 0.001 µM): 0.0095
increase in dead-cell fraction ([1]; 0.003162 µM): 0.0067
increase in dead-cell fraction ([1]; 0.01 µM): 0.0717
increase in dead-cell fraction ([1]; 0.03162 µM): 0.309
increase in dead-cell fraction ([1]; 0.1 µM): 0.338
increase in dead-cell fraction ([1]; 0.3162 µM): 0.295
increase in dead-cell fraction ([1]; 1 µM): 0.346
increase in dead-cell fraction ([2]; 0.001 µM): -0.0017
increase in dead-cell fraction ([2]; 0.003162 µM): -0.0033
increase in dead-cell fraction ([2]; 0.01 µM): 0.0079
increase in dead-cell fraction ([2]; 0.03162 µM): -0.0016
increase in dead-cell fraction ([2]; 0.1 µM): 0.0009
increase in dead-cell fraction ([2]; 0.3162 µM): -0.01
increase in dead-cell fraction ([2]; 1 µM): 0.0019
increase in dead-cell fraction ([2]; 3.162 µM): 0.024
increase in dead-cell fraction ([2]; 10 µM): 0.139
increase in dead-cell fraction (Flavopiridol [3]; 0.0001 µM): 0.0048
increase in dead-cell fraction (Flavopiridol [3]; 0.0003162 µM): -0.0007
increase in dead-cell fraction (Flavopiridol [3]; 0.001 µM): -0.0015
increase in dead-cell fraction (Flavopiridol [3]; 0.003162 µM): 0.0036
increase in dead-cell fraction (Flavopiridol [3]; 0.01 µM): -0.0014
increase in dead-cell fraction (Flavopiridol [3]; 0.03162 µM): 0.0045
increase in dead-cell fraction (Flavopiridol [3]; 0.1 µM): 0.0204
increase in dead-cell fraction (Flavopiridol [3]; 0.3162 µM): 0.164
increase in dead-cell fraction (Flavopiridol [3]; 1 µM): 0.514
increase in dead-cell fraction (LEE011/Ribociclib; 0.001 µM): 0.0033
increase in dead-cell fraction (LEE011/Ribociclib; 0.003162 µM): -0.0034
increase in dead-cell fraction (LEE011/Ribociclib; 0.01 µM): -0.0015
increase in dead-cell fraction (LEE011/Ribociclib; 0.03162 µM): -0.0014
increase in dead-cell fraction (LEE011/Ribociclib; 0.1 µM): -0.0023
increase in dead-cell fraction (LEE011/Ribociclib; 0.3162 µM): -0.0023
increase in dead-cell fraction (LEE011/Ribociclib; 1 µM): -0.0003
increase in dead-cell fraction (LEE011/Ribociclib; 3.162 µM): 0.0011
increase in dead-cell fraction (LEE011/Ribociclib; 10 µM): -0.0008
increase in dead-cell fraction (BSJ-03-123; 0.001 µM): -0.0011
increase in dead-cell fraction (BSJ-03-123; 0.003162 µM): -0.0008
increase in dead-cell fraction (BSJ-03-123; 0.01 µM): -0.0008
increase in dead-cell fraction (BSJ-03-123; 0.03162 µM): 0.0023
increase in dead-cell fraction (BSJ-03-123; 0.1 µM): 0.0017
increase in dead-cell fraction (BSJ-03-123; 0.3162 µM): -0.0023
increase in dead-cell fraction (BSJ-03-123; 1 µM): 0.0009
increase in dead-cell fraction (BSJ-03-123; 3.162 µM): 0.0085
increase in dead-cell fraction (BSJ-03-123; 10 µM): 0.184
increase in dead-cell fraction ([4]; 0.0003162 µM): 0.003
increase in dead-cell fraction ([4]; 0.001 µM): 0.0092
increase in dead-cell fraction ([4]; 0.003162 µM): 0.0021
increase in dead-cell fraction ([4]; 0.01 µM): 0.0028
increase in dead-cell fraction ([4]; 0.03162 µM): -0.0008
increase in dead-cell fraction ([4]; 0.1 µM): 0.0025
increase in dead-cell fraction ([4]; 0.3162 µM): -0.0015
increase in dead-cell fraction ([4]; 1 µM): -0.0066
increase in dead-cell fraction ([4]; 3.162 µM): -0.0162
increase in dead-cell fraction (THZ1 [5]; 0.0001 µM): -0.0033
increase in dead-cell fraction (THZ1 [5]; 0.0003162 µM): -0.0013
increase in dead-cell fraction (THZ1 [5]; 0.001 µM): -0.0005
increase in dead-cell fraction (THZ1 [5]; 0.003162 µM): -0.0025
increase in dead-cell fraction (THZ1 [5]; 0.01 µM): 0.0024
increase in dead-cell fraction (THZ1 [5]; 0.03162 µM): 0.0096
increase in dead-cell fraction (THZ1 [5]; 0.1 µM): 0.112
increase in dead-cell fraction (THZ1 [5]; 0.3162 µM): 0.179
increase in dead-cell fraction (THZ1 [5]; 1 µM): 0.27
GR value (THZ531; 0.0001 µM): 0.997 GR
GR value (THZ531; 0.0003162 µM): 0.974 GR
GR value (THZ531; 0.001 µM): 1.01 GR
GR value (THZ531; 0.003162 µM): 1.01 GR
GR value (THZ531; 0.01 µM): 1.04 GR
GR value (THZ531; 0.03162 µM): 0.956 GR
GR value (THZ531; 0.1 µM): 0.849 GR
GR value (THZ531; 0.3162 µM): 0.51 GR
GR value (THZ531; 1 µM): -0.378 GR
GR value (Flavopiridol [6]; 0.0001 µM): 1.03 GR
GR value (Flavopiridol [6]; 0.0003162 µM): 0.982 GR
GR value (Flavopiridol [6]; 0.001 µM): 1.01 GR
GR value (Flavopiridol [6]; 0.003162 µM): 0.958 GR
GR value (Flavopiridol [6]; 0.01 µM): 1.02 GR
GR value (Flavopiridol [6]; 0.03162 µM): 0.894 GR
GR value (Flavopiridol [6]; 0.1 µM): 0.695 GR
GR value (Flavopiridol [6]; 0.3162 µM): 0.11 GR
GR value (Flavopiridol [6]; 1 µM): -0.455 GR
GR value ([7]; 0.0003162 µM): 1.02 GR
GR value ([7]; 0.001 µM): 1.04 GR
GR value ([7]; 0.003162 µM): 1.03 GR
GR value ([7]; 0.01 µM): 1.06 GR
GR value ([7]; 0.03162 µM): 1.06 GR
GR value ([7]; 0.1 µM): 1.04 GR
GR value ([7]; 0.3162 µM): 1.03 GR
GR value ([7]; 1 µM): 1.08 GR
GR value ([7]; 3.162 µM): 1.07 GR
GR value (THZ1 [8]; 0.0001 µM): 1.06 GR
GR value (THZ1 [8]; 0.0003162 µM): 1.01 GR
GR value (THZ1 [8]; 0.001 µM): 1.02 GR
GR value (THZ1 [8]; 0.003162 µM): 0.979 GR
GR value (THZ1 [8]; 0.01 µM): 0.909 GR
GR value (THZ1 [8]; 0.03162 µM): 0.69 GR
GR value (THZ1 [8]; 0.1 µM): 0.16 GR
GR value (THZ1 [8]; 0.3162 µM): -0.171 GR
GR value (THZ1 [8]; 1 µM): -0.317 GR
